How the values were obtained:
Format in all cases: cell-based
Conditions in all cases: after 10, 20, 40 and 60 minutes at all dilutions 1:100, 1:200, 1:400, 1:800
Pseudomonas aeruginosa = experiment: Antimicrobial screening by agar dilution, Pseudomonas aeruginosa
Description: (§1) The antimicrobial properties of the 4-[4,5-bis(4-bromophenyl)-1-hexyl-1H-imidazol-2-yl]isoquinolin-3-ol was studied by the method of agar dilution. Test solutions of each compound was prepared in concentration of 1% using dimethylformamide as a solvent then they are diluted in physiological solution to obtain the final experimental dilutions 1:100, 1:200, 1:400, 1:800. The effect of these substances are compared with furacillin in a controlled study. The testing microbes used were gram positive bacteria Staphylococcus aureus, gram negative bacteria Pseudomonas aeruginosa and Escherichia coli and Candida albicans fungi were taken. The experiments used for this survey were meat-pentonlu agar (EPA) for cultivation of bacteria and Saburo environment for fungi. Each experiment used 1 ml of test solution on each plate 500 min. Add 2 drops of emulsified with microbes feel. All experimental samples were taken from the agar after 10, 20, 40, 60 minutes in the environment on the basis of Patrk planted. Bacteria were cultivated at a temperature of 37° C. for 1 day and the mushroom was kept in a thermostat for […] at a temperature of 28° C. in the. Then results were checked.

Escherichia coli = experiment: Antimicrobial screening by agar dilution, Escherichia coli
Description: as §1

Candida albicans = experiment: Antimicrobial screening by agar dilution, Candida albicans
Description: as §1

Staphylococcus aureus = experiment: Antimicrobial screening by agar dilution, Staphylococcus aureus
Description: as §1

Measured: inhibition activity (in words)

CCCCCCn1c(-c2c(O)ncc3ccccc23)nc(-c2ccc(Br)cc2)c1-c1ccc(Br)cc1 [4-[4,5-bis(4-bromophenyl)-1-hexyl-1H-imidazol-2-yl]isoquinolin-3-ol]
highest inhibition activity: Pseudomonas aeruginosa | Escherichia coli | Candida albicans | Staphylococcus aureus

Reference: patent US12180181B1, “4-[4,5-bis(4-bromophenyl)-1-hexyl-1H-imidazol-2-yl]isoquinolin-3-ol as an antimicrobial compound” (KING FAISAL UNIVERSITY, priority 2023, dated 2024)
